Changes are numbered by the printed parent chain. Numbers in names are those of the source.
Legend:
[1] = target: T1, 4HPA3H (Escherichia coli, UniProt Q57160); experiment: Whole-cell hydroxylation, cells expressing wild-type 4HPA3H; format: cell-based, E. coli; settings: BL21(DE3) cells expressing wild-type 4HPA3H
T1 construct: expressed in transfected cells; host or cells: E. coli BL21(DE3)
Experimental: (§5) Substrates (200 μM) as shown in FIG. 1 were added to suspensions of bacterial cells expressing 4HPA3H or its single (A) and double variants (B). After incubation for 16 hours, catechols and residual substrates were extracted and analyzed by HPLC
(§6) Suspensions of the cells were tested for hydroxylation of a panel of eight phenolic compounds (FIG. 1) which belong to different classes of natural products: we included (I) phenolic acids and ketones such as p-coumaric acid (1), ferulic acid (3), rheosmin (15) and p-hydroxybenzoic acid (9), (II) polycyclic compounds such as the hydroxycoumarin umbelliferone (13), the stilbene resveratrol (5) and the flavonoid naringenin (7). […] 4HPA3H was also tested for conversion of 4-methoxycinnamic acid and 4-aminocinnamic acid.

[2] = target: T2, wild-type 4HPA3H (Escherichia coli, UniProt Q57160); experiment: In vitro hydroxylation by the 4HPA3H/PrnF/FDH system, wild-type 4HPA3H; format: biochemical, E. coli; settings: substrate 1 mM, purified wild-type 4HPA3H, optimized conditions
T2 construct: made in house; host or cells: E. coli BL21(DE3)
Experimental: (§1) Purified 4HPA3H (A) or variants (B) (Y301I depicted in white and Y301F/S462A depicted in black) were used for conversion of substrates (1 mM) under optimized conditions. The numbers correspond to substrates as explained in the legend for FIG. 1 above.
(§2) In order to develop an effective and low-cost enzyme system for in vitro hydroxylation, several parameters of the 4HPA3H reaction with respect to maximum reaction rate were optimized. By means of a spectrophotometric assay (Example 4 above), the inventors screened different buffer systems and optimized the concentration of the components p-coumaric acid (1 cf. FIG. 1), FAD, NADH and methanol, the incubation temperature and oxygen transfer (i.e. by variation of the shaking frequency) (optimum conditions are given in the Experimental Section). […] In contrast to the cofactors, the accompanying cofactor recycling redox enzymes PrnF and FDH were used in excess due to their high specific activity.
In accordance with the whole-cell transformation experiments (FIG. 3), product yields in the conversion by the wild-type 4HPA3H (FIG. 8A) ranged from high (1, 13, 15 cf. FIG. 1) or moderate (5 cf. FIG. 1) to low (9, 11 cf. FIG. 1), whereas ferulic acid 3 was not oxidized. […] However, in contrast to the experiments with life biocatalysts […] conversion of naringenin (7 cf. FIG. 1) by the wild-type 4HPA3H (25% yield) was observed (which might be explained by increased substrate availability). The hydroxycarbazole (11) was not accepted by the double variant Y301F/S462A, probably because of the high substrate concentration which seems to reflect strong […] inhibition—an effect which has previously been observed for other 4HPA3H enzymes. Noteworthy, HPLC analysis of the reaction products confirmed product specificity.

[3] = target: T3, 4HPA3H-Y301F/S462A (SEQ ID NO:175) (Escherichia coli, UniProt Q57160, S462A/Y301F); experiment: Solid phase-based cascade (Talon column), hydroxylation of naringenin to eriodictyol; format: biochemical, E. coli
T3 construct: made in house; host or cells: E. coli BL21(DE3)
Experimental: Stock solutions of […] and eriodictyol (10 mM each) in methanol were produced (for the structure of the compounds, see FIG. 9). They were diluted using acetonitrile for obtaining the desired concentrations (70, 110, 140, 210 and 280 μM). 10 μl of each sample was injected in to a HPLC machine and calibration curves were produced for both substances (data not shown).
First the catalysis was performed using 9 mU oxidase 4HPA3H in a 10 ml reaction comprising 1 ml 1M Tris/HCl, pH 7.5; 25 μl of a 10 mM NADH solution, 20 μl of a 5 mM FAD solution and 1 ml formate solution using 9 mU 4HPA3H-Y301F/S462A (SEQ ID NO:175) and 0.57 mU PrnF-reductase (SEQ ID NO:176) and 640 mU FDH (SEQ ID NO:177). Subsequently the enzymes were mixes, 100 μl 1M Tris/HCl solution, pH 7.5, was added and ddH2O (deionized, reverse osmosis) was added ad 2 ml. The enzyme solution was at least 5 times passed through a 1 ml Talon column with a flow rate of 0.1 ml/min^−1 to let the proteins bind to the column in a homogenous way. The evaluation of the complete binding of the proteins to the column material was measured via Bradford assay. Then, the column was washed once with 50 mM Tris/HCl, pH 7.5 (=basis buffer), and connected to a peristaltic pump.
The constituents of each reaction mixture were transferred to a suitable sterile flask, which was then connected to a peristaltic pump. During reaction, the reaction mixture was slightly stirred with the help of a magnetic stirrer. Using a flow rate of 1 ml/min, the system was washed with the basis buffer for 2 min and a control sample was taken. Only then, the substrate was added, here 200 μM naringenin (from a 10 mM stock solution in methanol). The substrate was pumped over the Talon column having the enzymes bound thereto with a flow rate of 1 ml/min at maximum. During the time range from 0-1310 min, the sample extraction was performed in samples of 35 μl each. Said samples were mixed with an equal volume of acetonitrile and were immediately injected into a HPLC device (20 μl each). The evaluation was conducted with the help of a calibration curve done at the beginning of the experiment and thereby measuring and calculating the peak areas (see FIG. 10).
The same assay was performed using 35 mU hydroxylase/1 ml column volume and the concentration of the co-enzymes for regeneration of the cofactor was increased equivalently.

[4] = system: 4HPA3H enzymes; settings: previous study; cited from earlier work
[5] = Whole-cell hydroxylation, variants compared with wild-type on well-accepted substrates; settings: whole cells
Experimental: as §5, §6

[6] = Whole-cell hydroxylation, variants on substrates 5, 9 and 11; format: cell-based; settings: whole cells
[7] = In vitro assay (4HPA3H/PrnF/FDH), conversion of ferulic acid; format: biochemical; settings: purified enzyme, PrnF and FDH
Experimental: (§3) For assaying 4HPA3H in microplate scale, 4HPA3H was incubated with PrnF, the substrate p-coumaric acid (1 cf. FIG. 1) and the formate dehydrogenase (FDH) from Candida boidinii. Similar as reported in our previous publication, this enzyme was introduced for regeneration of the costly cofactor NADH: NAD^+ formed during the reaction is recycled with sodium formate, yielding a sequential three-enzyme cascade for hydride transfer (FIG. 2). The conversion of p-coumaric acid (1 cf. FIG. 1) was measured spectrophotometrically by a previously established catechol complexation method (M. Dippe, B. Weigel, R. Heinke, T. Vogt, L. A. Wessjohann, 2014), which could be applied for quantitative determination of the product caffeic acid (see FIG. 6). […] However, similar to the data obtained from whole-cell biotransformations (see Example 2), these variants were beneficial in the conversion of ferulic acid (3 cf. FIG. 1), which is also reflected by comparably high conversion rates (4HPA3H-Y301F/S462A: 1.06±0.31 nmol min^−1 mg^−1, 4HPA3H-Y301I: 4.49±0.20 nmol min^−1 mg^−1).
(§4) In order to develop an effective and low-cost enzyme system for in vitro hydroxylation, several parameters of the 4HPA3H reaction with respect to maximum reaction rate were optimized. […]

[8] = In vitro catechol complex formation assay (4HPA3H/PrnF/FDH), p-coumaric acid; format: biochemical; settings: purified enzyme, optimized conditions, PrnF and FDH
Experimental: (A) Standard curve for the determination of caffeic acid (2 cf. FIG. 1). Mixtures of caffeic acid and p-coumaric acid (1) were incubated with FeCl3 and analyzed at 595 nm as described in the Experimental Section. (B) Time course of the oxidation of p-coumaric acid (1 cf. FIG. 1) by wild-type 4HPA3H. The enzymatic reaction was performed under optimized conditions, and produced caffeic acid (2 cf. FIG. 1) was detected as Fe^3+ complex. Data are the means±standard deviations obtained from three measurements.
as §3, §4

[9] = In vitro hydroxylation, mutant enzymes on challenging substrates 3 and 7; format: biochemical; settings: substrate 1 mM, purified enzymes
Experimental: as §1, §2
In accordance with the whole-cell transformation experiments (FIG. 3), product yields in the conversion by the wild-type 4HPA3H (FIG. 8A) ranged from high (1, 13, 15 cf. FIG. 1) or moderate (5 cf. FIG. 1) to low (9, 11 cf. FIG. 1), whereas ferulic acid 3 was not oxidized. […]

Question: For `Nc1ccc(C=CC(=O)O)cc1` [4-aminocinnamic acid], which “acceptance as substrate” value [1] is on record?
Answer: Its value is “no substrates”.

Question: With `COc1ccc(C=CC(=O)O)cc1` [4-methoxycinnamic acid] as the molecule, how does the “acceptance as substrate” value [1] read?
Answer: The value was “no substrates”.

Question: With `O=C(O)/C=C/c1ccc(O)cc1` [Compound 1, p-coumaric acid] as the molecule, how does the “acceptance as substrate” value [1] read?
Answer: The value was “high efficiency”.

Question: What about the “product yield” value [2] of the same molecule?
Answer: The value was “high”.

Question: What does the source list for `COc1cc(/C=C/C(=O)O)ccc1O` [Compound 3, ferulic acid]?
Answer: acceptance as substrate [1]: not accepted; product yield [2]: not oxidized

Question: For `Oc1ccc(C=Cc2cc(O)cc(O)c2)cc1` [Compound 5, resveratrol], which “product yield” value [2] is on record?
Answer: The value was “moderate”.

Question: With `O=C1C[C@@H](c2ccc(O)c(O)c2)Oc2cc(O)cc(O)c21` [Compound 8, eriodictyol] as the molecule, how does the “biocatalytic formation of eriodictyol” value ([3]; 9 mU enzyme/1 ml column, 200 μM naringenin, after 1290 min) read?
Answer: The value was 42.4 µM.

Question: And the eriodictyol yielded ([3]; 35 mU hydroxylase/1 ml column volume, after 240 min)?
Answer: The eriodictyol yielded was 67.7 µM.

Question: Which “product yield” value [2] does the source give for `O=C(O)c1ccc(O)cc1` [Compound 9, p-hydroxybenzoic acid] here?
Answer: The value was “low”.

Question: Which “product yield” value [2] does the source give for `O=c1ccc2ccc(O)cc2o1` [Compound 13, umbelliferone] here?
Answer: Its value is “high”.

Question: For `CC(=O)CCc1ccc(O)cc1` [Compound 15, rheosmin], which “conversion / yield of catechol product” value ([1]; substrate 200 μM, 16 hours, HPLC) is on record?
Answer: The value was 100%.

Question: And the “product yield” value [2]?
Answer: The value was “high”.

Question: For `O=C(O)C=Cc1ccccc1` [cinnamic acid], which “hydroxylation of substrate” value [4] is on record?
Answer: The value was “unable to hydroxylate”.

B1: 4HPA3H-Y301F: 4HPA3H single variant Y301F (protein, listed as Escherichia coli)
chain: MKPEDFRASTQRPFTGEEYLKSLQDGREIYIYGERVKDVTTHPAFRNAAASVAQLYDALHKPEMQDSLCWNTDTGSGGYTHKFFRVAKSADDLRQQRDAIAEWSRLSYGWMGRTPDYKAAFGCALGANPGFYGQFEQNARNWYTRIQETGLYFNHAIVNPPIDRHLPTDKVKDVYIKLEKETDAGIIVSGAKVVATNSALTHYNMIGFGSAQVMGENPDFALMFVAPMDADGVKLISRASYEMVAGATGSPYDYPLSSRFDENDAILVMDNVLIPWENVLIYRDFDRCRRWTMEGGFARMFPLQACVRLAVKLDFITALLKKSLECTGTLEFRGVQADLGEVVAWRNTFWALSDSMCSEATPWVNGAYLPDHAALQTYRVLAPMAYAKIKNIIERNVTSGLIYLPSSARDLNNPQIDQYLAKYVRGSNGMDHVQRIKILKLMWDAIGSEFGGRHELYEINYSGSQDEIRLQCLRQAQNSGNMDKMMAMVDRCLSEYDQDGWTVPHLHNNDDINMLDKLLK
modifications: 4HPA3H HpaB Y301F
notes: 4HPA3H single variant Y301F
Question: What does the source list for B1?
Answer: activity towards substrates 1, 13, 15 compared with wild-type enzyme [5]: comparably active; conversion of the substrates 5, 9 and 11 [6]: superior

B2: S462A: 4HPA3H single variant S462A (protein, listed as Escherichia coli)
chain: B1 chain with F301Y, S462A
modifications: 4HPA3H HpaB S462A
Question: Which “activity towards substrates 1, 13, 15 compared with wild-type enzyme” value [5] does the source give for B2 here?
Answer: The value was “comparably active”.

B3: 4HPA3H-Y301F/S462A: 4HPA3H double variant, SEQ ID NO:175 (protein, listed as Escherichia coli)
chain: B1 chain with S462A
modifications: 4HPA3H HpaB Y301F/S462A
Question: For B3, which “conversion rate of ferulic acid (3)” value [7] is on record?
Answer: The value was 1.06 ± 0.31 nmol/min/mg.

Question: What about the “specific activity towards p-coumaric acid (1)” value [8] of the same molecule?
Answer: The value was 1.6 ± 0.3 nmol/min/mg.

Question: And the “transformation of the challenging substrates 3 and 7” value [9]?
Answer: Its value is “optimal”.

B4: M293P: 4HPA3H single variant M293P (protein, listed as Escherichia coli)
chain: B1 chain with M293P, F301Y
modifications: 4HPA3H HpaB M293P
Question: For B4, which “activity towards substrates 1, 13, 15 compared with wild-type enzyme” value [5] is on record?
Answer: Its value is “reduced activity”.

B5: 4HPA3H: wild-type 4-hydroxyphenylacetate 3-hydroxylase from E. coli, SEQ ID NO:98 (protein, listed as Escherichia coli)
chain: B1 chain with F301Y
modifications: 4HPA3H HpaB wt
Question: For B5, which “specific activity towards p-coumaric acid (1)” value [8] is on record?
Answer: Its value is 6.2 ± 0.5 nmol/min/mg.

B6: 4HPA3H-Y301I: 4HPA3H single variant with isoleucine at position 301 (protein, listed as Escherichia coli)
chain: B1 chain with F301I
modifications: 4HPA3H HpaB Y301I
notes: 4HPA3H single variant with isoleucine at position 301
Question: With B6 as the molecule, how does the “conversion rate of ferulic acid (3)” value [7] read?
Answer: The value was 4.49 ± 0.20 nmol/min/mg.

Question: What about the “specific activity towards p-coumaric acid (1)” value [8] of the same molecule?
Answer: Its value is 1.3 ± 0.6 nmol/min/mg.

Question: And the “transformation of the challenging substrates 3 and 7” value [9]?
Answer: Its value is “optimal”.

Reference: patent US10988786B2, “Mutant 4-hydroxyphenylacetate 3-hydroxylases and uses thereof” (SYMRISE AG, priority 2015, dated 2021)
